Patent US12410179B2, “Modulators of TNF alpha activity and uses thereof” (RayThera, Inc., priority 2023, dated 2025)

These compounds were tested against TNFα (Homo sapiens, UniProt P01375) (assay: HEK-Blue hTNFα reporter assay). Conditions: HEK-Blue hTNFα reporter cells, SEAP readout; read-out: IC50 Range.
Format: cell-based
Design: purchased R&D biosystem (R&D Systems) 210-TA-020/CF
Method in brief: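 Compounds preincubated 1 h at 37 °C with recombinant hTNFα ([…]), then added to HEK293 NF-κB-SEAP reporter cells, 10000 cells/well, 24 h at 37 °C. SEAP read by QUANTI-Blue at OD620; % inhibition versus stimulated and unstimulated controls, IC50 by 4-parameter fit.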

Sequence of TNFα (P01375 77-233 limits assumed): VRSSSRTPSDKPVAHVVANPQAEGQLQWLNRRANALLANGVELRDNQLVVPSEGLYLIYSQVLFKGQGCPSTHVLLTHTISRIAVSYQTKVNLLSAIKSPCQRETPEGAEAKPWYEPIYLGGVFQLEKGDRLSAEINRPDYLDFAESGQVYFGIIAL

`C[C@]1(C#N)C[C@](N)(c2ccc(-c3ccn4nc5c(c4c3)[C@@H]3C[C@H]5NC(=O)c4cccc(OC(F)F)c43)cn2)C1` [Example 212] and `C[C@]1(O)C[C@](N)(c2ccc(-c3ccn4nc5c(c4c3)[C@@H]3C[C@H]5NC(=O)c4cccc(OC(F)F)c43)cn2)C1` [Example 224] cannot be ordered by IC50: < 25 nM for the first, < 25 nM for the second.

`[2H]C([2H])([2H])N1C(=O)c2cccc(OC(F)F)c2[C@H]2C[C@@H]1c1nn3cc(F)c(-c4cnc([C@]5(N)C[C@@](C)(C#N)C5)nc4)nc3c12` [Example 213] and `[2H]C([2H])([2H])N1C(=O)c2cccc(OC(F)F)c2[C@H]2C[C@@H]1c1nn3cc(C)c(-c4cnc([C@]5(N)C[C@@](C)(C#N)C5)nc4)nc3c12` [Example 237] cannot be ordered by IC50: < 25 nM for the first, < 25 nM for the second.

First: [2H]C([2H])([2H])N1C(=O)c2cccc(OC(F)F)c2[C@H]2C[C@@H]1c1nn3cc(F)c(-c4cnc([C@]5(N)C[C@@](C)(O)C5)cn4)cc3c12 [Example 214]
Second: [2H]C([2H])([2H])N1C(=O)c2cccc(OC(F)F)c2[C@H]2C[C@@H]1c1nn3cc(F)c(-c4cnc([C@]5(O)C[C@@](C)(N)C5)cn4)cc3c12 [Example 260]
The IC50 of the first is lower: < 25 nM for the first, 25 to 100 nM for the second.

`[2H]C([2H])([2H])N1C(=O)c2cccc(OC(F)F)c2[C@H]2C[C@@H]1c1nn3cc(C)c(-c4cnc([C@]5(N)C[C@@](C)(O)C5)nc4)nc3c12` [Example 215] and `[2H]C([2H])([2H])N1C(=O)c2cccc(OC(F)F)c2[C@H]2C[C@@H]1c1nn3cc(C)c(-c4cnc(C5(N)CCC5)nc4)nc3c12` [Example 216] cannot be ordered by IC50: < 25 nM for the first, < 25 nM for the second.

Compared with `C[C@]1(C#N)C[C@](N)(c2ccc(-c3ccn4nc5c(c4n3)[C@@H]3C[C@H]5NC(=O)c4cccc(OC(F)F)c43)cn2)C1` [Example 217], `C[C@]1(O)C[C@](N)(c2ccc(-c3ccn4nc5c(c4n3)[C@@H]3C[C@H]5NC(=O)c4cccc(OC(F)F)c43)cn2)C1` [Example 220] is higher in IC50: < 25 nM for the first, 25 to 100 nM for the second.

`[2H]C([2H])([2H])N1C(=O)c2cccc(OC(F)F)c2[C@H]2C[C@@H]1c1nn3ccc(-c4cnc([C@]5(N)C[C@@](C)(O)C5)nc4)nc3c12` [Example 218] and `[2H]C([2H])([2H])N1C(=O)c2cccc(OC(F)F)c2[C@H]2C[C@@H]1c1nn3ccc(-c4cnc(C5(N)CC5)nc4)nc3c12` [Example 238] cannot be ordered by IC50: < 25 nM for the first, < 25 nM for the second.

`[2H]C([2H])([2H])N1C(=O)c2cccc(OC(F)F)c2[C@H]2C[C@@H]1c1nn3ccc(-c4cnc(C5(N)CCC5)c(F)c4)nc3c12` [Example 221] and `[2H]C([2H])([2H])N1C(=O)c2cccc(OC(F)F)c2[C@H]2C[C@@H]1c1nn3ccc(-c4cnc(C5(N)CCC5)c(F)c4)cc3c12` [Example 250] cannot be ordered by IC50: < 25 nM for the first, < 25 nM for the second.

`[2H]C([2H])([2H])N1C(=O)c2cccc(OC(F)F)c2[C@H]2C[C@@H]1c1nn3ccc(-c4cnc([C@]5(N)C[C@@](C)(O)C5)nc4)cc3c12` [Example 222] and `[2H]C([2H])([2H])N1C(=O)c2cccc(OC(F)F)c2[C@H]2C[C@@H]1c1nn3ccc(-c4cnc(C5(N)CC5)nc4)cc3c12` [Example 255] cannot be ordered by IC50: < 25 nM for the first, < 25 nM for the second.

`C[C@]1(O)C[C@](N)(c2ncc(-c3nc4c5c(nn4cc3F)[C@H]3C[C@@H]5c4c(OC(F)F)cccc4C(=O)N3)cn2)C1` [Example 223] and `C[C@]1(C#N)C[C@](N)(c2ncc(-c3nc4c5c(nn4cc3F)[C@H]3C[C@@H]5c4c(OC(F)F)cccc4C(=O)N3)cn2)C1` [Example 235] cannot be ordered by IC50: < 25 nM for the first, < 25 nM for the second.

`[2H]C([2H])([2H])N1C(=O)c2cccc(OC(F)F)c2[C@H]2C[C@@H]1c1nn3cc(F)c(-c4cnc([C@]5(N)C[C@@H](O)C5)c(F)c4)nc3c12` [Example 225] and `[2H]C([2H])([2H])N1C(=O)c2cccc(OC(F)F)c2[C@H]2C[C@@H]1c1nn3cc(F)c(-c4cnc(C5(N)CC5)nc4)nc3c12` [Example 239] cannot be ordered by IC50: < 25 nM for the first, < 25 nM for the second.

`COc1cccc2c1[C@H]1C[C@H](c3nn4ccc(-c5cnc(C6(N)CCC6)nc5)cc4c31)N(C)C2=O` [Example 226] and `[2H]C([2H])([2H])N1C(=O)c2cccc(OC)c2[C@H]2C[C@@H]1c1nn3ccc(-c4cnc(C5(N)CCC5)nc4)cc3c12` [Example 251] cannot be ordered by IC50: < 25 nM for the first, < 25 nM for the second.

`[2H]C([2H])([2H])N1C(=O)c2cccc(OC(F)F)c2[C@H]2C[C@@H]1c1nn3cc(F)c(-c4cnc([C@]5(N)C[C@@H](C#N)C5)nc4)nc3c12` [Example 227] and `[2H]C([2H])([2H])N1C(=O)c2cccc(OC(F)F)c2[C@H]2C[C@@H]1c1nn3cc(F)c(-c4cnc(C5(N)CC(F)(F)C5)nc4)nc3c12` [Example 228] cannot be ordered by IC50: < 25 nM for the first, < 25 nM for the second.

First: C[C@]1(O)C[C@](N)(c2ncc(-c3ccn4nc5c(c4c3)[C@@H]3C[C@H]5NC(=O)c4ccc(F)c(OC(F)F)c43)cn2)C1 [Example 229]
Second: NC1(c2ncc(-c3ccn4nc5c(c4c3)[C@@H]3C[C@H]5NC(=O)c4cccc(OC5CC5)c43)cn2)CCC1 [Example 233]
The IC50 of the first is lower: < 25 nM for the first, 25 to 100 nM for the second.

`[2H]C([2H])([2H])N1C(=O)c2cccc(OC(F)F)c2[C@H]2C[C@@H]1c1nn3ccc(-c4cnc([C@]5(N)C[C@@](C)(C#N)C5)nc4C)nc3c12` [Example 230] and `[2H]C([2H])([2H])N1C(=O)c2cccc(OC(F)F)c2[C@H]2C[C@@H]1c1nn3ccc(-c4cnc(C5(N)CCC5)nc4C)nc3c12` [Example 242] cannot be ordered by IC50: < 25 nM for the first, < 25 nM for the second.

`[2H]C([2H])([2H])N1C(=O)c2cccc(OC(F)F)c2[C@H]2C[C@@H]1c1nn3ccc(-c4cnc([C@]5(N)C[C@@](C)(C#N)C5)nc4C)cc3c12` [Example 231] and `[2H]C([2H])([2H])N1C(=O)c2cccc(OC(F)F)c2[C@H]2C[C@@H]1c1nn3ccc(-c4cnc(C5(N)CCC5)nc4C)cc3c12` [Example 241] cannot be ordered by IC50: < 25 nM for the first, < 25 nM for the second.

`[2H]C([2H])([2H])N1C(=O)c2cccc(OC(F)F)c2[C@H]2C[C@@H]1c1nn3ccc(-c4cnc([C@]5(C#N)C[C@@](C)(N)C5)nc4)nc3c12` [Example 232] and `[2H]C([2H])([2H])N1C(=O)c2cccc(OC(F)F)c2[C@H]2C[C@@H]1c1nn3ccc(-c4cnc([C@]5(C#N)C[C@](C)(N)C5)nc4)nc3c12` [Example 236] fall in the same range of IC50: 100 to 1000 nM for the first, 100 to 1000 nM for the second.

`Cc1nc(C2(N)CCC2)ncc1-c1ccn2nc3c(c2c1)[C@@H]1C[C@H]3NC(=O)c2cccc(OC(F)F)c21` [Example 234] and `[2H]C([2H])([2H])N1C(=O)c2cccc(OC(F)F)c2[C@H]2C[C@@H]1c1nn3ccc(-c4cnc(C5(N)CCC5)nc4)cc3c12` [Example 248] cannot be ordered by IC50: < 25 nM for the first, < 25 nM for the second.

`[2H]C([2H])([2H])N1C(=O)c2cccc(OC(F)F)c2[C@H]2C[C@@H]1c1nn3cc(F)c(-c4cnc([C@]5(N)C[C@@](C)(C#N)C5)nc4)cc3c12` [Example 240] and `[2H]C([2H])([2H])N1C(=O)c2cccc(OC(F)F)c2[C@H]2C[C@@H]1c1nn3cc(F)c(-c4cnc([C@]5(N)C[C@](C)(C#N)C5)nc4)cc3c12` [Example 244] cannot be ordered by IC50: < 25 nM for the first, < 25 nM for the second.

Compared with `[2H]C([2H])([2H])N1C(=O)c2cccc(OC(F)F)c2[C@H]2C[C@@H]1c1nn3ccc(-c4cnc(C5(NC)CC5)nc4)nc3c12` [Example 243], `[2H]C([2H])([2H])N1C(=O)c2cccc(OC(F)F)c2[C@H]2C[C@@H]1c1nn3cnc(-c4cnc(C5(N)CC5)nc4)cc3c12` [Example 245] is lower in IC50: 25 to 100 nM for the first, < 25 nM for the second. The second is the more potent here.

`[2H]C([2H])([2H])N1C(=O)c2cccc(OC(F)F)c2[C@H]2C[C@@H]1c1nn3ccc(-c4cnc([C@]5(O)C[C@@](C)(N)C5)c(F)c4)cc3c12` [Example 246] and `[2H]C([2H])([2H])N1C(=O)c2cccc(OC(F)F)c2[C@H]2C[C@@H]1c1nn3cc(F)c(-c4cnc([C@]5(O)C[C@@](C)(N)C5)c(F)c4)cc3c12` [Example 256] cannot be ordered by IC50: < 25 nM for the first, < 25 nM for the second.

`[2H]C([2H])([2H])N1C(=O)c2cccc(OC(F)F)c2[C@H]2C[C@@H]1c1nn3ccc(-c4cnc(C5(N)COC5)cn4)cc3c12` [Example 247] and `[2H]C([2H])([2H])N1C(=O)c2cccc(OC(F)F)c2[C@H]2C[C@@H]1c1nn3ccc(-c4cnc([C@]5(O)C[C@@](C)(N)C5)cn4)cc3c12` [Example 253] cannot be ordered by IC50: < 25 nM for the first, < 25 nM for the second.

`[2H]C([2H])([2H])N1C(=O)c2cccc(OC(F)F)c2[C@H]2C[C@@H]1c1nn3ccc(-c4cnc([C@]5(O)C[C@@](C)(C#N)C5)c(F)c4)nc3c12` [Example 249] and `[2H]C([2H])([2H])N1C(=O)c2cccc(OC(F)F)c2[C@H]2C[C@@H]1c1nn3cc(C)c(-c4cnc([C@]5(N)C[C@@](C)(C#N)C5)nc4)cc3c12` [Example 259] cannot be ordered by IC50: < 25 nM for the first, < 25 nM for the second.

`[2H]C([2H])([2H])N1C(=O)c2cccc(OC(F)F)c2[C@H]2C[C@@H]1c1nn3ccc(-c4cnc(C(C)(C)N)nc4)cc3c12` [Example 254] and `[2H]C([2H])([2H])N1C(=O)c2cccc(OC(F)F)c2[C@H]2C[C@@H]1c1nn3ccc(-c4cnc([C@](C)(N)CC#N)nc4)cc3c12` [Example 264] cannot be ordered by IC50: < 25 nM for the first, < 25 nM for the second.

`[2H]C([2H])([2H])N1C(=O)c2cccc(OC(F)F)c2[C@H]2C[C@@H]1c1nn3ccc(-c4cnc([C@H](N)C5CC5)nc4)cc3c12` [Example 257] and `[2H]C([2H])([2H])N1C(=O)c2cccc(OC(F)F)c2[C@H]2C[C@@H]1c1nn3ccc(-c4cnc([C@@H](N)C5CC5)nc4)cc3c12` [Example 258] cannot be ordered by IC50: < 25 nM for the first, < 25 nM for the second.

Compared with `[2H]C([2H])([2H])N1C(=O)c2cccc(OC(F)F)c2[C@H]2C[C@@H]1c1nn3cnc(-c4cnc([C@]5(O)C[C@@](C)(N)C5)nc4)cc3c12` [Example 261], `[2H]C([2H])([2H])N1C(=O)c2cccc(OC(F)F)c2[C@H]2C[C@@H]1c1nn3cnc(-c4cnc(C5(N)CCC5)nc4)cc3c12` [Example 262] is lower in IC50: 25 to 100 nM for the first, < 25 nM for the second. The second is the more potent here.

`[2H]C([2H])([2H])N1C(=O)c2cccc(OC(F)F)c2[C@H]2C[C@@H]1c1nn3cnc(-c4cnc([C@]5(N)C[C@@](C)(O)C5)nc4C)cc3c12` [Example 263] and `[2H]C([2H])([2H])N1C(=O)c2cccc(OC(F)F)c2[C@H]2C[C@@H]1c1nn3ccc(-c4cnc([C@@](C)(N)CC#N)nc4)cc3c12` [Example 265] cannot be ordered by IC50: < 25 nM for the first, < 25 nM for the second.
